ChEMBL document CHEMBL1240454, “1,3-Dioxolane-based ligands incorporating a lactam or imide moiety: structure-affinity/activity relationship at alpha1-adrenoceptor subtypes and at 5-HT1A receptors” (Eur J Med Chem, 2010)

What was measured:
[1] = target: T1, Alpha-1D adrenergic receptor (Rattus norvegicus) (UniProt P23944); assay: Antagonist activity at adrenergic Alpha-1D receptor in Wistar rat thoracic aorta assessed as inhibition of (-)-norepinephrine-induced vasocontraction treated 30 mins before (-)norepinephrine challenge; assay type: functional, tissue-based
T1 sequence (whole entry): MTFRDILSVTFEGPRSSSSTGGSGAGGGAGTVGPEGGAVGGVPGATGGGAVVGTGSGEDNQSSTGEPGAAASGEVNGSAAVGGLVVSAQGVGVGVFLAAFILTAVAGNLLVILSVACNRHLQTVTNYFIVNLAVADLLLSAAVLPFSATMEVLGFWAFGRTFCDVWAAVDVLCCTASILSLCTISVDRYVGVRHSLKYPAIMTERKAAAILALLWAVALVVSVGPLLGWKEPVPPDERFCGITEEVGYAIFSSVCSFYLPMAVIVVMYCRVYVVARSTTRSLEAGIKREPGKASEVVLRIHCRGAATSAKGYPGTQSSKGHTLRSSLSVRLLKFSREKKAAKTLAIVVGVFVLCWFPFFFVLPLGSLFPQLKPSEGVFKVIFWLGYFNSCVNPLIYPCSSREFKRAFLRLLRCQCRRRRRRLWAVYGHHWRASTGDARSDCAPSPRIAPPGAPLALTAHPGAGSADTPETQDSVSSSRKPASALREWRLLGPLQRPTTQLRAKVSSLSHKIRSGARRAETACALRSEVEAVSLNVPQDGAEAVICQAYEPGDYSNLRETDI

Rattus norvegicus = species on record: Rattus norvegicus; assay: Selectivity for adrenergic alpha1A receptor in Wistar rat prostatic vas deferens over adrenergic Alpha-1D receptor in Wistar rat thoracic aorta; assay type: tissue-based
[2] = target: T2, Alpha-1B adrenergic receptor (Rattus norvegicus) (UniProt P15823); assay: Antagonist activity at adrenergic Alpha-1B receptor in Wistar rat spleen assessed as inhibition of […]-induced tissue contraction treated 30 mins before […] challenge; assay type: functional, tissue-based
T2 sequence (whole entry): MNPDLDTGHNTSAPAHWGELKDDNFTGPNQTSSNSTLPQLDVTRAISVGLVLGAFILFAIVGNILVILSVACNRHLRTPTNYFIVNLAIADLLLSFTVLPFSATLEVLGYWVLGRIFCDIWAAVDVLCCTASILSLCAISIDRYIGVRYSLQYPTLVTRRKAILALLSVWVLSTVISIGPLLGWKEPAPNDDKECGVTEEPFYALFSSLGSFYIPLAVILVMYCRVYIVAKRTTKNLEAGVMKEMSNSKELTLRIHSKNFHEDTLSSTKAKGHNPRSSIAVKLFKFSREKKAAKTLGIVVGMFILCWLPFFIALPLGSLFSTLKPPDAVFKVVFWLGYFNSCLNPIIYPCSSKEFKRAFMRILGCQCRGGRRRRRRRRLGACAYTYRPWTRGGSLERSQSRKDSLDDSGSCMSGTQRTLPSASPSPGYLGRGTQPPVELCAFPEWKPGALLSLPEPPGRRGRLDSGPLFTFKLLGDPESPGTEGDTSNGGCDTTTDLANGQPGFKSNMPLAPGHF

[3] = target: T3, Alpha-1A adrenergic receptor (Homo sapiens, UniProt P35348)
T3 sequence (P35348 whole entry): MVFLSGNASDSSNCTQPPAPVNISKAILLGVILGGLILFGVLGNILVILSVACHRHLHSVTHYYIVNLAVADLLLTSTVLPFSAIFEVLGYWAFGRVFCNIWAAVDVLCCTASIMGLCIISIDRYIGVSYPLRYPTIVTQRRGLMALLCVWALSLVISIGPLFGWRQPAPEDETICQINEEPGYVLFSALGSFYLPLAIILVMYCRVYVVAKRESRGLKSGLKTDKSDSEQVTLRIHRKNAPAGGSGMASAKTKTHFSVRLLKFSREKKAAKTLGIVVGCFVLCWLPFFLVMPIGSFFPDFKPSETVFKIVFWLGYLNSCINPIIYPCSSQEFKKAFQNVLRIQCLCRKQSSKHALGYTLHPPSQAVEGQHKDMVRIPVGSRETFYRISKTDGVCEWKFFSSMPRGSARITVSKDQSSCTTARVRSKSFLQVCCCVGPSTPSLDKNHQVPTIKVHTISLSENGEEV
Description: Displacement [3H]prazosin of human recombinant alpha1A adrenergic receptor expressed in CHO cells by rapid filtration technique

[4] = target: T4, Alpha-1D adrenergic receptor (Homo sapiens, UniProt P25100)
T4 sequence (P25100 whole entry): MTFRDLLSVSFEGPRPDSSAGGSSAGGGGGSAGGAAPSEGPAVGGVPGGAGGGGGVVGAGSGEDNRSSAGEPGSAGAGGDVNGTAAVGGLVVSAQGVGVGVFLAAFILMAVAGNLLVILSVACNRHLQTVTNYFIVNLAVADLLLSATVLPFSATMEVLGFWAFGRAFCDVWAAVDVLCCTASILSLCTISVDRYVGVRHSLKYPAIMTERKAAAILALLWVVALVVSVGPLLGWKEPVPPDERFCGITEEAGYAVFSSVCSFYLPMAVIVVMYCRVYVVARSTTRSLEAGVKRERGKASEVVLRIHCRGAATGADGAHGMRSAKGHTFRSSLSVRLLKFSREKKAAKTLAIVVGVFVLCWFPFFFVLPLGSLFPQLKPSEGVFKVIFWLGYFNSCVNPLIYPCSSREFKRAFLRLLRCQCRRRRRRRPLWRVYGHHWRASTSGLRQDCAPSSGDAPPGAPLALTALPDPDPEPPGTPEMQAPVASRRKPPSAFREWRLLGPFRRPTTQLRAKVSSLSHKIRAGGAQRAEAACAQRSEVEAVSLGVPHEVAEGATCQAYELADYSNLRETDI
Description: Displacement [3H]prazosin of human recombinant Alpha-1D adrenergic receptor expressed in CHO cells by rapid filtration technique

[5] = target: T5, Alpha-1A adrenergic receptor (Rattus norvegicus) (UniProt P43140); assay: Antagonist activity at adrenergic alpha1A receptor in Wistar rat prostatic vas deferens assessed as inhibition of (-)-noradrenaline-induced tissue contraction treated 30 mins before (-)noradrenalin challenge; assay type: functional, tissue-based
T5 sequence (whole entry): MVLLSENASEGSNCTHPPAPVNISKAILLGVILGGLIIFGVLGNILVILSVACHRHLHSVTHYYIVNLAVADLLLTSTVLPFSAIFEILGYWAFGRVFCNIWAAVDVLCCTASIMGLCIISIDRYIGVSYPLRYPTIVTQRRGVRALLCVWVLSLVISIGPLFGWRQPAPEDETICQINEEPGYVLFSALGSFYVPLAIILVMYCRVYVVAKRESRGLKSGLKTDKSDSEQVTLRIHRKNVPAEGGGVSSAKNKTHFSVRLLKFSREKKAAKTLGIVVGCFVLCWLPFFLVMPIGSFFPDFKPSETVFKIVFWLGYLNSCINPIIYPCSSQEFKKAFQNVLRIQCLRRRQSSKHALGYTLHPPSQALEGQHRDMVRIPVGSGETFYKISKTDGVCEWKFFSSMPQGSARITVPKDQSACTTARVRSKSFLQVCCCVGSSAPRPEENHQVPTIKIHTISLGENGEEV

Structure (SMILES)	pKb [1]	Selectivity ratio (Rattus norvegicus)	pKb [2]	Ki [3]	Ki [4]	pKb [5]
COc1ccccc1N1CCN(CC2OCC(c3ccccc3)(c3ccccc3)O2)CC1 (stereo not drawn)	8.14	0.8	6.69	0.263 nM	0.813 nM	8.24
COc1ccccc1N1CCN(C[C@H]2CO[C@@](CN3CCCCC3=O)(c3ccccc3)O2)CC1	6.74	0.3	7.93	0.871 nM	14.1 nM	7.3
COc1ccccc1N1CCN(C[C@@H]2CO[C@@](CN3C(=O)CC4(CCCC4)CC3=O)(c3ccccc3)O2)CC1 (relative stereo)	8.51	17	7.47	10 nM	1.38 nM	7.29
COc1ccccc1N1CCN(C[C@H]2CO[C@](CN3CCCC3=O)(c3ccccc3)O2)CC1 (relative stereo)	6.79	0.07	8.29	1.38 nM	13.5 nM	7.94
COc1ccccc1N1CCN(C[C@@H]2CO[C@](CN3CCCC3=O)(c3ccccc3)O2)CC1 (relative stereo)	7.43	1	8.17	12.6 nM	5.25 nM	7.34
COc1ccccc1N1CCN(C[C@@H]2CO[C@@](CN3CCCCC3=O)(c3ccccc3)O2)CC1 (relative stereo)	7.29	1	8.3	11.5 nM	1.48 nM	7.32
COc1ccccc1N1CCN(C[C@H]2CO[C@@](CN3CCCCCC3=O)(c3ccccc3)O2)CC1 (relative stereo)	7.57	0.04	8.42	0.631 nM	4.07 nM	8.97
COc1ccccc1N1CCN(C[C@@H]2CO[C@@](CN3CCCCCC3=O)(c3ccccc3)O2)CC1 (relative stereo)	7.75	4	8.08	26.9 nM	2.51 nM	7.18
COc1ccccc1N1CCN(C[C@H]2CO[C@@](CN3C(=O)CCC3=O)(c3ccccc3)O2)CC1 (relative stereo)	6.42	0.1	7.04	2.88 nM	39.8 nM	7.45
COc1ccccc1N1CCN(C[C@@H]2CO[C@@](CN3C(=O)CCC3=O)(c3ccccc3)O2)CC1 (relative stereo)	7.78	3	7.11	40.7 nM	16.2 nM	7.32
COc1ccccc1N1CCN(C[C@H]2CO[C@@](CN3C(=O)CCCC3=O)(c3ccccc3)O2)CC1 (relative stereo)	6.19	0.1	7.12	6.61 nM	32.4 nM	7.09
COc1ccccc1N1CCN(C[C@@H]2CO[C@@](CN3C(=O)CCCC3=O)(c3ccccc3)O2)CC1 (relative stereo)	7.57	2	7.35	21.4 nM	8.51 nM	7.36
COc1ccccc1N1CCN(C[C@H]2CO[C@@](CN3C(=O)CC4(CCCC4)CC3=O)(c3ccccc3)O2)CC1 (relative stereo)	6.78	0.1	7.4	2.04 nM	4.79 nM	7.72
